Where only a bound is given, the exact number is not on record here.

For `COc1ccc(-c2cc(S(=O)(=O)c3ccc(N)cc3)cc(N3CCCC3)n2)cc1`, the melting point (commonly the temperature, or range, at which the solid turns liquid) lay within 227 to 229 °C. The same measure for `CCc1c(N)c(C(N)=O)nn1CC1CC1`: 143 to 145 °C; for `COCOCc1nc(-c2ccccc2)oc1C=O`: 51 to 52 °C; for `CC(C)(C)OC(=O)N[C@H]1CN(Cc2ccccc2)[C@@H]2CCCO[C@H]12` (relative stereo): 82 to 84 °C. With `CS(=O)(=O)Nc1cc2occ(C(N)=O)c(=O)c2cc1Oc1ccccc1F`, the melting point was 249 to 251 °C. The figure for `Nc1ccc(Sc2ccccn2)cc1C(F)(F)F` is 132 to 133 °C; for `CCOC(=O)C1=C(N2CCCC2)N=C(C)C(C(C)=O)C1c1cccc([N+](=O)[O-])c1` (configuration not stated) it is 130 °C; for `CC(C)Cc1ccccc1-n1c(=O)[nH]c2c(C(N)=O)nc(-c3cccc(O)c3)nc21` it is greater than 260 °C.

The compound `CCCCN1CCSC1c1nsc2ccc(-n3c(=O)cc(C(F)(F)F)n(C)c3=O)cc12` (configuration not stated) came in with a melting point of 78 to 82 °C. The figure for `CN1CCC(c2c(O)cc(O)c3c(=O)cc(Oc4ccccc4Cl)oc23)C(O)C1` (configuration not stated) is 105 °C; for `COCC(=O)Nc1cccc(C2(C3CCN(C(=O)c4ccc(O)cc4)CC3)N=C(N)N(C)C2=O)c1` (configuration not stated) it is 184 to 187 °C.

The compound `Cc1cn(C)c2c(OCc3ccccc3)cc3c(c12)[C@H](CO)CN3C(=O)OC(C)(C)C` returned a melting point of 138 to 140 °C. In the case of `CCCc1c(O)c(C(C)=O)cc(Cl)c1OCCCOc1c(C(C)=O)ccc(OCC(=O)O)c1CCC`, the melting point lay in the range of 119 to 121 °C.

`Cc1ccc(S(=O)(=O)OCC2COc3ccc4nc(C)oc4c3O2)cc1` (configuration not stated) yielded a melting point of 123 °C. In turn, `COCOc1cc(OCOC)cc(C(=O)O)c1` showed a melting point of 129 to 130 °C. `Cc1ccc(N2C(=O)C(O)=C(C(=O)c3ccc(C(C)C)cc3)C2c2ccc(OC(C)C)nc2)nn1` (configuration not stated): the melting point was 282 °C.

Take `COc1ccc(C(C)C)cc1-c1cc(-c2nnnn2C2CCNC2)c(OCc2ccccc2)cc1OCc1ccccc1` (configuration not stated): the melting point lay in the range of 85 to 87 °C. With `COc1ccc2c(c1)C(=O)N(c1ccc3c(c1)cc(C)n3C)C2`, the melting point was in the range of 209 to 213 °C. Compound `Cc1cccc2c1N(CC(=O)N1CC3CCC(CC3)C1)C(=O)C(NC(=O)Nc1cccc(C=NO)c1)N=C2c1ccccc1F` (configuration not stated) displayed a melting point of 196 to 199 °C. Compound `Nc1ccc(Oc2ccc(Oc3ccc(N)cc3)c(P(=O)(c3ccccc3)c3ccccc3)c2)cc1` returned a melting point of 205 to 208 °C. `COc1cc2[nH]c(=O)c(=O)n(C)c2cc1OC` had a melting point of 308 °C. `O=C1CCC2=C(c3ccccc3)c3ccccc3C2N1` (configuration not stated) showed a melting point of 213 to 216 °C.

`CCOC(=O)C=Cc1ccn(C)c(=O)c1`: the melting point was in the range of 126 to 127 °C. In turn, `NC(=NCC(F)(F)F)Nc1ccnc(OCCn2ccnc2)n1` gave a melting point of 149 to 150 °C.

`CN(C)CC#Cc1ccc(C(CC2CCCC2)C(=O)Nc2nccs2)cc1` (configuration not stated): the melting point lay in the range of 164 to 167 °C. `CCCOC(=O)C1=C(C)NC(C)=C(C(=O)OC)C1c1ccccc1[N+](=O)[O-]` (configuration not stated): the melting point fell in the range of 127 to 128 °C.

Compound `COc1ccc(C(=O)c2sc(Nc3ccc(OCc4ccccc4)cc3)nc2N)cc1` came in with a melting point of 222 to 224 °C. With `COc1ccc(CNn2nnc3c(-c4ccco4)ncnc32)cc1`, the melting point lay within 166 to 168 °C.

In turn, `COc1ccc(-n2nnnc2C(F)(F)F)cc1C=O` registered a melting point of 117 °C.

Compound `O=C1c2ccc(N3CCCC3)c3c(Cl)c(Cl)cc(c23)C(=O)N1O` returned a melting point of 200 to 201 °C. The figure for `CCc1noc(-c2cn(-c3cccc(OCc4ccccc4)c3)cn2)n1` is 113 to 114 °C. In turn, `CC(=O)Nc1ccc(SCC(OS(C)(=O)=O)C(C)(C)C)cc1` (configuration not stated) yielded a melting point of 123 to 124 °C. `CS(=O)(=O)N(Cc1ccncc1)Cc1ccccc1F` had a melting point of 69 to 70 °C.

Compound `COP(=O)(OC)C(NC=O)P(=O)(OC)OC` yielded a melting point of 95 °C. For `COc1nc(C(Br)Br)c([N+](=O)[O-])cc1C`, the melting point lay in the range of 58.7 to 61.2 °C. Consider `Cc1ccc(C2=NN=C(c3ccccc3Cl)N(C)N2)cc1`, for which the melting point was in the range of 152 to 154 °C.

As for `Cc1c(C(=O)O)ccc(=O)n1-c1ccc(Cl)cc1`, the melting point fell in the range of 271 to 273 °C. The figure for `CCCCc1nc(=O)c2cc(C=O)ccc2[nH]1` is 242 to 244 °C.

In turn, `NCc1ccc2c(c1)N(C1CCN(CCc3ccc(F)cc3)CC1)CC2` displayed a melting point of 83 to 85 °C. Consider `CCC(O)(C#Cc1ncn2c1CN(C)C(=O)c1c(Cl)cccc1-2)CC`, for which the melting point fell in the range of 186 to 188 °C.

The compound `CC(C)c1cc(C(=O)O)sc1C(C)C` displayed a melting point of 149 to 151 °C. Turning to `CN1NC=CC1c1ccc(C(=O)N2Cc3cccn3Cc3ccccc32)c(Cl)c1` (configuration not stated), the melting point lay in the range of 78 to 79 °C. As for `Cc1cc(NNC(=O)Nc2ccc(N(CCCl)CCCl)cc2)c2ccccc2n1`, the melting point lay in the range of 235 to 236 °C.

Compound `O=C1C(=O)N(CCCCN2CCN(C(c3ccccc3)c3ccccc3)CC2)c2ccccc21` had a melting point of 127 to 129 °C. The compound `Cc1ccnc(C(=O)c2[nH]c3cc(Cl)ccc3c2NC(=O)CCl)c1` showed a melting point of 224 to 225 °C. The same measure for `COc1ccc(CCN(C)CCOc2ccc(NC(=O)c3cccc4c(=O)c5ccccc5[nH]c34)cc2)cc1`: 165 °C; for `C=CCS(=O)CCNC(N)=O` (configuration not stated): 66 °C. The figure for `CC(=O)c1ccc(-c2ccc(Cl)cc2)c([N+](=O)[O-])c1` is 103 to 105 °C; for `CNCC(O)c1ccc(F)cc1` (configuration not stated) it is 77 to 78.8 °C; for `O=C(Nc1ccncc1)c1cccc(-c2ccc3c(c2)C(Oc2ccc(Cl)cc2Cl)CC3)c1` (configuration not stated) it is 226 to 227 °C.

Turning to `O=[N+]([O-])c1cc(SC(F)(F)F)[nH]c1-c1ccc(Cl)cc1`, the melting point lay within 143 to 145 °C. As to `CC(C)=C(C#N)C(=O)OC(COc1ccc(C(=O)c2ccccc2)c(O)c1)COc1ccc(C(=O)c2ccccc2)c(O)c1`, the melting point was in the range of 145 to 147 °C. With `COc1ccc(C2(c3ccc(OC)cc3)CCN(CC[C@H]3CN(C)[C@@H]4Cc5c[nH]c6cccc(c56)[C@@]4(OC)C3)CC2)cc1`, the melting point fell in the range of 129 to 136 °C.

`O=c1oc(-c2ccccc2Cl)cc(O)c1SCc1ccccc1` had a melting point of 99 to 101 °C. The compound `C=Cc1ccc2c(c1CCC(=O)OC)CCC(NS(=O)(=O)c1ccc(Cl)cc1)C2` (configuration not stated) gave a melting point of 138 °C.

The compound `Cc1nnc2n1-c1sc(Cl)cc1C(c1ccccc1F)=NC2` displayed a melting point of 187 to 189 °C. As for `CCCCc1oc2ccc([N+](=O)[O-])cc2c1S(=O)(=O)c1ccc(OCCCBr)cc1`, the melting point amounted to 101 °C. Compound `O=C(O)CCc1ccc(OCc2ccc(Oc3ccccc3)cc2)c(F)c1` returned a melting point of 123 to 125 °C.

The compound `Nc1nc(Cl)c(Cl)nc1C=Nc1ccc(Cl)cc1` came in with a melting point of 179 to 182 °C.

Compound `O=C(Nc1c(F)cccc1F)c1ccc(-n2nc(C(F)(F)F)cc2C2CC2)nc1` yielded a melting point of 192 to 194 °C. The compound `CN(C)C(=O)C=C(c1ccc(-c2ccccc2)cc1)c1ccc(-c2ccccc2)cc1` came in with a melting point of 121 °C.

The compound `CN(C)c1c(Cl)cc(C(O)CNC(C)(C)C)cc1Cl` (configuration not stated) gave a melting point of 96 to 99 °C. In turn, `COC1=CC(=O)C(Br)=CC1=O` showed a melting point of 184 to 186 °C. Compound `COc1ccc2cccc(C(CCO)CNC(=O)C3CCC3)c2c1` (configuration not stated) registered a melting point of 113 to 115 °C. The same measure for `CN1CC2CN(C)CC(C1)C2OCc1ccccc1` (configuration not stated): 70 to 75 °C; for `CSc1ccc(-c2n[nH]c(=O)cc2-c2ccc(F)cc2)cc1`: 197 to 198 °C. The figure for `CCn1cc(C(=O)O)c(=O)c2cc(F)c(-n3cccc3)nc21` is 257 to 259 °C. The same measure for `CCc1nnc2c(N(CC)CC)nc3ccccc3n12`: 98 to 100 °C; for `CC(C)(C)c1csc(NC(=O)c2ccccc2)c1C#N`: 130 °C; for `O=C(c1ccc2c(c1)OCCOCCOCCOCCOCCO2)c1ccccn1`: 78 to 80 °C. With `CNC(=O)Nc1n[nH]c(-c2ccncc2)c1-c1ccc(F)cc1`, the melting point lay within 212 to 213 °C.

`COC(=O)c1ccc(CCl)nc1` returned a melting point of 63.5 to 63.8 °C. With `COc1c2occc2c(OC)c2c(=O)cc(N3CCC(C4CCN(c5cc(=O)c6c(OC)c7ccoc7c(OC)c6o5)CC4)CC3)oc12`, the melting point was 126 to 129 °C.

For the compound `O=C1C(=O)c2ccccc2C2=C1SCC1(CCN(C(=O)C=Cc3ccccc3Cl)CC1)O2`, the melting point is 110 to 115 °C. `Cc1c2c(c(C)c(NC(=O)CC(C)(C)C)c1-c1ccccc1)C(c1ccc(C(C)C)cc1)CO2` (configuration not stated) showed a melting point of 212 to 213 °C.

`COC(=O)c1cc(OCCCOc2ccc(-c3ccccc3)cc2)cc(OCCCOc2ccc(-c3ccccc3)cc2)c1` registered a melting point of 142 to 145 °C. For `Cc1cc(O)c(C)c(C)c1OCc1ccccc1`, the melting point fell in the range of 101 to 103 °C. For `COc1cc(OC)c2c(=O)cc(-c3ccccc3Cl)oc2c1C1CCN(C)C1CO` (configuration not stated), the melting point fell in the range of 91 to 93 °C. The same measure for `Cc1cc(O)c(Oc2ccccc2C#N)cc1N1CCOCC1`: 162 to 165 °C. The compound `CC(=O)c1cc(O)c(C)c(C)c1O` returned a melting point of 151 °C.

On to `CC(C)(C)c1ccc(-c2nc(NC(=O)C3CCCC3)sc2-c2ccncc2)cc1`, for which the melting point was in the range of 309 to 311 °C. Consider `COC(=O)CC(NC1CC1)=C(C(=O)OC)C(=O)C(F)(F)C(F)(F)F`, for which the melting point lay within 32 to 34 °C.

For `CCOC(=O)Cc1cc(F)ccc1-c1ccccc1`, the melting point worked out at 60.5 °C. The figure for `Cc1ccc(N2C(=O)c3nccnc3C2OC(=O)Oc2ccccc2)nc1` (configuration not stated) is 176 °C. `Cc1c(N2CC[C@H](NC(=O)OC(C)(C)C)C2)c(F)c(N)c2c(=O)c(C(=O)O)cn(C3CC3)c12` showed a melting point of 135 to 136 °C. In the case of `CC(C)(C)n1cc(C(=O)O)c(=O)c2cc(F)c(F)cc21`, the melting point was greater than 260 °C. As for `CCCc1nc2c(N)nc3ccccc3c2n1CCOCCCS(=O)(=O)c1ccccc1`, the melting point is 160 to 161 °C.

The values are drawn from a melting point compilation (Tetko et al.; mined from patent text by program, amines drawn as free bases though some values may be those of a salt).
